From ChEMBL document CHEMBL1201862, “PubChem BioAssay data set” (2004)
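All cell lines were grown in 96-well plates and treated with compound for 48 hours. At the GI50, growth is halved.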 The source made the active and inactive calls. Rule as the data show it: active = GI50 up to about 1.1 µM and inactive = higher.

Legend:
Assay in all cases: NCI tumour cell line growth inhibition, 48 h
MDA-MB-231 = system: MDA-MB-231
U-251 = system: U-251
SK-MEL-28 = system: SK-MEL-28
NCI-H226 = system: NCI-H226
NCI-H522 = system: NCI-H522
HL-60 = system: HL-60
Malme-3M = system: Malme-3M
786-0 = system: 786-0
SK-MEL-5 = system: SK-MEL-5
Hs-578T = system: Hs-578T
OVCAR-5 = system: OVCAR-5
IGROV-1 = system: IGROV-1
CAKI-1 = system: CAKI-1
NCI-H460 = system: NCI-H460
OVCAR-8 = system: OVCAR-8
MDA-N = system: MDA-N
UACC-62 = system: UACC-62
PC-3 = system: PC-3
SW-620 = system: SW-620
HOP-62 = system: HOP-62
NCI-H23 = system: NCI-H23
LOX IMVI = system: LOX IMVI
M14 = system: M14
ACHN = system: ACHN
K562 = system: K562
HOP-92 = system: HOP-92
SK-OV-3 = system: SK-OV-3
RPMI-8226 = system: RPMI-8226
HCC 2998 = system: HCC 2998
HT-29 = system: HT-29
CCRF-CEM = system: CCRF-CEM
HCT-116 = system: HCT-116
DU-145 = system: DU-145
SNB-19 = system: SNB-19
BT-549 = system: BT-549
OVCAR-4 = system: OVCAR-4
TK-10 = system: TK-10
SF-295 = system: SF-295
A549 = system: A549
SNB-75 = system: SNB-75
SF-268 = system: SF-268
MCF7 = system: MCF7
SR = system: SR
RXF 393 = system: RXF 393
SK-MEL-2 = system: SK-MEL-2
HCT-15 = system: HCT-15
EKVX = system: EKVX
UO-31 = system: UO-31
A498 = system: A498
MOLT-4 = system: MOLT-4
SN12C = system: SN12C
COLO 205 = system: COLO 205
UACC-257 = system: UACC-257
T47D = system: T47D
KM12 = system: KM12
NCI/ADR-RES = system: NCI/ADR-RES
OVCAR-3 = system: OVCAR-3
SF-539 = system: SF-539
MDA-MB-435 = system: MDA-MB-435

SMILES: O=c1c2c3c(sc2nc(CN2CCNCC2)n1-c1ccccc1)CCCC3
- GI50 (MDA-MB-231): > 100 µM (inactive)
- GI50 (U-251): > 100 µM (inactive)
- GI50 (SK-MEL-28): > 100 µM (inactive)
- GI50 (NCI-H226): > 100 µM (inactive)
- GI50 (NCI-H522): > 100 µM (inactive)
- GI50 (HL-60): > 100 µM (inactive)
- GI50 (Malme-3M): > 100 µM (inactive)
- GI50 (786-0): > 100 µM (inactive)
- GI50 (SK-MEL-5): > 100 µM (inactive)
- GI50 (Hs-578T): > 100 µM (inactive)
- GI50 (OVCAR-5): > 100 µM (inactive)
- GI50 (IGROV-1): > 100 µM (inactive)
- GI50 (CAKI-1): 90.8 µM (inactive)
- GI50 (NCI-H460): > 100 µM (inactive)
- GI50 (OVCAR-8): > 100 µM (inactive)
- GI50 (MDA-N): 89.1 µM (inactive)
- GI50 (UACC-62): > 100 µM (inactive)
- GI50 (PC-3): > 100 µM (inactive)
- GI50 (SW-620): > 100 µM (inactive)
- GI50 (HOP-62): > 100 µM (inactive)
- GI50 (NCI-H23): > 100 µM (inactive)
- GI50 (LOX IMVI): > 100 µM (inactive)
- GI50 (M14): > 100 µM (inactive)
- GI50 (ACHN): > 100 µM (inactive)
- GI50 (K562): > 100 µM (inactive)
- GI50 (HOP-92): > 100 µM (inactive)
- GI50 (SK-OV-3): > 100 µM (inactive)
- GI50 (RPMI-8226): > 100 µM (inactive)
- GI50 (HCC 2998): > 100 µM (inactive)
- GI50 (HT-29): 35.9 µM (inactive)
- GI50 (CCRF-CEM): > 100 µM (inactive)
- GI50 (HCT-116): 53.3 µM (inactive)
- GI50 (DU-145): > 100 µM (inactive)
- GI50 (SNB-19): > 100 µM (inactive)
- GI50 (BT-549): > 100 µM (inactive)
- GI50 (OVCAR-4): 22.8 µM (inactive)
- GI50 (TK-10): > 100 µM (inactive)
- GI50 (SF-295): > 100 µM (inactive)
- GI50 (A549): > 100 µM (inactive)
- GI50 (SNB-75): 34.8 µM (inactive)
- GI50 (SF-268): 65.5 µM (inactive)
- GI50 (MCF7): > 100 µM (inactive)
- GI50 (SR): > 100 µM (inactive)
- GI50 (RXF 393): > 100 µM (inactive)
- GI50 (SK-MEL-2): > 100 µM (inactive)
- GI50 (HCT-15): > 100 µM
- GI50 (EKVX): > 100 µM (inactive)
- GI50 (UO-31): 54.2 µM (inactive)
- GI50 (A498): > 100 µM (inactive)
- GI50 (MOLT-4): > 100 µM (inactive)
- GI50 (SN12C): > 100 µM (inactive)
- GI50 (COLO 205): > 100 µM (inactive)
- GI50 (UACC-257): > 100 µM (inactive)
- GI50 (T47D): 99.5 µM (inactive)
- GI50 (KM12): > 100 µM (inactive)
- GI50 (NCI/ADR-RES): > 100 µM (inactive)
- GI50 (OVCAR-3): > 100 µM (inactive)

SMILES: COC(=O)Cn1cnc2c(Cl)nc(Nc3ccccc3)nc21
- GI50 (MDA-MB-231): 38 µM (inactive)
- GI50 (U-251): 66.7 µM (inactive)
- GI50 (SK-MEL-28): 27.4 µM (inactive)
- GI50 (NCI-H226): > 100 µM (inactive)
- GI50 (HL-60): 22.4 µM (inactive)
- GI50 (Malme-3M): 54.3 µM (inactive)
- GI50 (786-0): > 100 µM (inactive)
- GI50 (SK-MEL-5): 39 µM (inactive)
- GI50 (Hs-578T): 20.9 µM (inactive)
- GI50 (IGROV-1): 20.8 µM (inactive)
- GI50 (NCI-H460): 32.8 µM (inactive)
- GI50 (OVCAR-8): 25.9 µM (inactive)
- GI50 (MDA-N): 30.8 µM (inactive)
- GI50 (UACC-62): 22.6 µM (inactive)
- GI50 (PC-3): 20.7 µM (inactive)
- GI50 (SW-620): 65 µM (inactive)
- GI50 (HOP-62): > 100 µM (inactive)
- GI50 (LOX IMVI): 17.9 µM (inactive)
- GI50 (M14): 29 µM (inactive)
- GI50 (ACHN): > 100 µM (inactive)
- GI50 (K562): 10.6 µM (inactive)
- GI50 (SK-OV-3): > 100 µM (inactive)
- GI50 (RPMI-8226): > 100 µM (inactive)
- GI50 (HCC 2998): 6.52 µM (inactive)
- GI50 (HT-29): > 100 µM (inactive)
- GI50 (CCRF-CEM): 27.2 µM (inactive)
- GI50 (HCT-116): 35.5 µM (inactive)
- GI50 (SNB-19): 67.9 µM (inactive)
- GI50 (BT-549): 86.5 µM (inactive)
- GI50 (OVCAR-4): 87.3 µM (inactive)
- GI50 (TK-10): > 100 µM (inactive)
- GI50 (SF-295): > 100 µM (inactive)
- GI50 (A549): 79.6 µM (inactive)
- GI50 (SNB-75): > 100 µM (inactive)
- GI50 (SF-268): > 10 µM (inactive)
- GI50 (MCF7): 76.2 µM (inactive)
- GI50 (SF-539): > 100 µM (inactive)
- GI50 (SR): 40.1 µM (inactive)
- GI50 (RXF 393): 36.6 µM (inactive)
- GI50 (SK-MEL-2): 16.4 µM (inactive)
- GI50 (HCT-15): 21.4 µM
- GI50 (EKVX): 27 µM (inactive)
- GI50 (A498): > 100 µM (inactive)
- GI50 (MOLT-4): 26.5 µM (inactive)
- GI50 (SN12C): 28.8 µM (inactive)
- GI50 (COLO 205): 59.6 µM (inactive)
- GI50 (UACC-257): 68.7 µM (inactive)
- GI50 (T47D): > 100 µM (inactive)
- GI50 (KM12): > 100 µM (inactive)
- GI50 (MDA-MB-435): 26.7 µM (inactive)
- GI50 (NCI/ADR-RES): 73.3 µM (inactive)
- GI50 (OVCAR-3): 21.1 µM (inactive)
